Where “and” joins values, the source holds several entries; their conditions need not be identical. Equal values may be shown once. Read-outs that look alike come from different tables or passages of the source.
What was measured:
[1] = test system: P. aeruginosa ATCC 27853; format: cell-based, Pseudomonas aeruginosa; conditions: ATCC 27853, 2 h
Description: Several peptides were tested for their ability to inhibit bacterial growth in liquid culture. Fifty microliters of peptide at a concentration between about 0.2 mM and 50 mM were added in 96-well U-bottom plates containing phosphate buffer 10 mM supplemented with 125 or 250 mM NaCl and one of the following bacteria: Escherichia coli ATCC 25922, P. aeruginosa ATCC 27853. After 2 hour incubation at 37° C., bacteria were transferred on a solid medium. As a growth control, the bacterial cultures were cultured in the absence of peptides.
The bacterial suspension was put in contact for two hours with different concentrations of the peptide at the temperature of 37° C. After incubation, 20 μl were drawn from the wells of each dilution and seeded on the solid medium agar McConkey for Gram-negative bacteria and Columbia agar supplemented with 5% bovine red blood cells for Gram-positive bacteria. The inoculum was evenly distributed on the agarized medium by means of a sterile disposable loop. After incubation for 24 h at the temperature of 37° C., counting of the colony forming units (CFU) was performed.
In table 6A, the antimicrobial activity against E. coli ATCC 25922, Pseudomonas aeruginosa ATCC 27853 in the presence of […] NaCl is reported.

[2] = test system: E. coli ML-35pYC; experiment: Membrane permeabilization assay (CENTA / ONPG kinetics); format: cell-based, Escherichia coli; conditions: peptide 12.5 μg/ml, logistic 4-parameter fit, read up to 240 min
Description: The strain ML-35pYC of E. coli was used to assay the kinetics of membrane permeabilization performed by the peptides of the invention. This bacterial strain expresses resistance to ampicillin, constitutive expression of cytoplasmic beta-galactosidase, and is engineered with a plasmid for the synthesis of a periplasmic beta-lactamase. Sixty microliters (60 μl) of bacterial suspension of strain ML-35pYC of E. coli were added to 60 μl of a 15 mM solution of ONPG or 1.5 mM of CENTA in phosphate buffer. Subsequently, 120 μl of the test peptides were added to obtain a final concentration of 12.5 μg/ml. The kinetics of the reaction was evaluated by recording the value of absorbance at […] and 405 nm, for ONPG and CENTA respectively, every 10 min up to a maximum of 240 min.
By “fitting” the experimental points with the logistic 4-parameter curve, it was possible to determine the inflexion point, that is the point where the curve changes direction, relative to the 3 test peptides. No inflexion point was observed during the assay with CENTA (inflexion point higher than 500 min).

[3] = test system: meticillin-resistant S. aureus ATCC 43300; experiment: Broth-microdilution test and subsequent plating on agar, Gram-positive bacteria; format: cell-based, Staphylococcus aureus; conditions: 2 h contact at 37° C., CFU count after 24 h
Description: (§1) For each bacterial strain, 3-5 morphologically similar colonies were drawn from fresh cultures, inoculated in Brain Hearth Infusion broth liquid medium and incubated at the temperature of 37° C. under shaking at 225 r.p.m. for 3-4 h. Subsequently, the bacterial suspension was centrifuged at 1000 g for 20 min and the thus obtained pellet was resuspended in phosphate buffer 10 mM. Turbidity was measured in a spectrophotometer with absorbance at 600 nm, equivalent in the range 0.08-0.13 to a concentration of about 10^8 CFU/ml. The bacterial suspension was diluted 1:100 in phosphate buffer 10 mM, and within 30 min, 50 microliters of such bacterial suspension (10^6 CFU/ml) were inoculated in each well of the microtiter plate, to obtain a final bacterial concentration of about 5×10^5 CFU/ml.
(§2) Several synthetic peptides were tested for their ability to inhibit bacterial growth. Fifty microliters of peptide at a concentration comprised between about 0.2 mM and about 50 mM were added to 96-well U-bottom plates containing phosphate buffer and one of the following bacteria: S. aureus ATCC 25923, meticillin-resistant S. aureus ATCC 43300. After 2 hour incubation at 37° C., bacteria were transferred on a solid medium. As a control, the bacterial cultures were cultured in the absence of peptide.
(§3) The bacterial suspension was put in contact for two hours with different concentrations of the peptide at the temperature of 37° C. After incubation, 20 μl were drawn from the wells of each dilution and seeded on solid medium, Columbia agar supplemented with 5% bovine red blood cells for Gram-positive bacteria. The inoculum was evenly distributed on the agarized medium by means of a sterile disposable loop. After incubation for 24 hours at the temperature of 37° C., counting of the bacterial colonies (CFU) was performed.

[4] = test system: S. aureus ATCC 25923; experiment: as above; format: cell-based, Staphylococcus aureus; conditions: meticillin-sensitive, 2 h contact at 37° C., CFU count after 24 h
Description: as §1, §2, §3

[5] = test system: Malassezia pachydermatis ATCC 14522; experiment: Broth-microdilution test and subsequent plating on agar, fungi (yeasts); format: cell-based; conditions: 2 h contact at 37° C., CFU count on agar Sabouraud
Description: (§4) The inoculum was set up by culturing Candida albicans ATCC 10231 and Malassezia pachydermatis ATCC 14522 in Czapek-Dox broth medium (DIFCO) for 48-72 h. On the assay day, the fungal culture was centrifuged at 1700×g for 15 min, the pellet was resuspended in phosphate buffer and submitted to shaking by the use of an electric vortex to disperse the fungal cell aggregates. The suspension was diluted until an optical density equal to an opacity of 0.5 on the McFarland turbidimetric scale was reached, which contains approximately 1-5×10^6 cell/ml (Branda J. A., Krantz A. Effectc of yeast on automated cell counting. Am J Clin Pathol., 2006:126, 248-254).
(§5) The peptides were tested for their ability to inhibit fungal growth. Fifty microliters of peptide at a concentration comprised between about 0.2 mM and about 50 mM were added in 96-well U-bottom plates containing phosphate buffer and one of the following fungi: Candida albicans ATCC 10231 and Malassezia pachydermatis ATCC 14522. After 2 h incubation at 37° C., fungi were transferred on the solid medium agar Sabouraud. As a control, fungal cultures were cultured in the absence of peptide.
(§6) The fungal suspension was put in contact for two hours with different concentrations of the peptide at the temperature of 37° C. After incubation, 20 μl were drawn from the wells of each dilution and seeded on the solid medium agar Sabouraud. The inoculum was evenly distributed on the agarized medium by means of a sterile disposable loop. After incubation for 24 h at the temperature of 37° C., counting of the fungal colonies (CFU) was performed.

[6] = test system: Candida albicans ATCC 10231; experiment: as above; format: cell-based; conditions: 2 h contact at 37° C., CFU count on agar Sabouraud
Description: as §4, §5, §6

## CC[C@H](C)[C@@H]1NC(=O)[C@H](CCCCN)NC(=O)[C@H](C)NC(=O)[C@@H](NC(=O)[C@H](CCCCN)NC(=O)[C@@H](N)Cc2c[nH]cn2)CSSC[C@@H](C(=O)N[C@@H](C)C(=O)O)NC(=O)[C@H](Cc2ccc(O)cc2)NC(=O)[C@H](CCCCN)NC(=O)[C@H](C(C)C)NC(=O)[C@H](Cc2c[nH]cn2)NC(=O)[C@H](C(C)C)NC(=O)CNC(=O)[C@H](CCCNC(=N)N)NC(=O)[C@H](Cc2c[nH]c3ccccc23)NC(=O)[C@H](CCCCN)NC1=O (relative stereo) [Peptide P2041, HIS*LYS*CYS*ALA*LYS*ILE*LYS*TRP*ARG*GLY*VAL*HIS*VAL*LYS*TYR*CYS*ALA]
[1]; 12.5 μg/ml
  Antimicrobial activity (percentage of CFU growth inhibition) P. aeruginosa: 100%
[1]; 100 μg/ml
  Antimicrobial activity (percentage of CFU growth inhibition) P. aeruginosa: 100%
[2]; CENTA substrate (periplasmic beta-lactamase)
  Inflexion point CENTA: >500 min
[2]; ONPG substrate (cytoplasmic beta-galactosidase)
  Inflexion point ONPG: 16.08 min
[3]
  LD90 MRSA ATCC 43300: 0.85 µM
[3]; listed as 2041
  LD90 MRSA ATCC 43300: 0.85 μM and 1.72 μg/ml
[4]
  LD90 S. aureus ATCC 25923: 1.42 µM
[4]; listed as 2041
  LD90 S. aureus ATCC 25923: 1.42 μM and 2.89 μg/ml
[5]
  LD90 Malassezia pachydermatis: 0.85 µM
[6]
  LD90 Candida albicans: 1.42 µM

— patent publication US10421782B2, “Cyclic cationic peptides with antimicrobial activity” (I.C.F. S.R.L., priority 2012, dated 2019)
